Test [1] concerns the target T1, Agl97 (maltase) (Hordeum vulgare, UniProt Q9LLY2).
T1 construct: purified recombinant
T1 sequence (Q9LLY2 24-879): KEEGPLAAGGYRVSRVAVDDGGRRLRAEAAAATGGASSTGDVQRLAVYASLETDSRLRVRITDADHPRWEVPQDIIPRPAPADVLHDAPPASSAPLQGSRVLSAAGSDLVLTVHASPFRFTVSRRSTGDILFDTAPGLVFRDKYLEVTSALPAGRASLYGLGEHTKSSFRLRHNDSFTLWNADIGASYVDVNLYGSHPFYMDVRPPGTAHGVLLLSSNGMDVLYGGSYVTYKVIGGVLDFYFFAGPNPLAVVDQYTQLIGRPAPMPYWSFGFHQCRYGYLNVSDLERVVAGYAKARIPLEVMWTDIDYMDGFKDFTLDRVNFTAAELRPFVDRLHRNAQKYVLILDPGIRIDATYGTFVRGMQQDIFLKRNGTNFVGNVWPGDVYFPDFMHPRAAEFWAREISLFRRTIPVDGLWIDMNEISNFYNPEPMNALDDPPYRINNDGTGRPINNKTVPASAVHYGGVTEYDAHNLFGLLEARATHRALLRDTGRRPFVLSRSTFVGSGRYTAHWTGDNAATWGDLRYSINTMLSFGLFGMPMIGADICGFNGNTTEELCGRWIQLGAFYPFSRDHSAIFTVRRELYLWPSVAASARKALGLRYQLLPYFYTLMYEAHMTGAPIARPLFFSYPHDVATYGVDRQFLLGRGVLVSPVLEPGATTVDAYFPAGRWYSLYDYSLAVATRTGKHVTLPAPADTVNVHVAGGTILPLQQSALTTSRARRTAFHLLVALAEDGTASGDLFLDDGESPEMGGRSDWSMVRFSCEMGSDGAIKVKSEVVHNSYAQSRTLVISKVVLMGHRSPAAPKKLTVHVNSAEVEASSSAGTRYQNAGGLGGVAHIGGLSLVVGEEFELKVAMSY
Kind of test: 4-nitrophenol release, absorbance […] nm. Type of test: biochemical. The conditions noted are these: 0.6 mM, 50 mM sodium acetate pH 4.5, 5 mM CaCl2, 37 °C.

Test [2] addresses T1, Agl97 (maltase). Kind of test: inhibition of pNPG hydrolysis, absorbance […] nm. Type of test: biochemical. The note with it: 0.01-100 µM LAB; 0.6 mM pNPG, 50 mM sodium acetate pH 4.5, 5 mM CaCl2, 37 °C.
Test [3] deals with AXAH activity of barley endosperm (arabinoxylan arabinofuranohydrolase, endogenous) (barley (endogenous in endosperm of cv NFC Tipple)). Description: SEC; endosperm extracts of seedlings at 4-10 dpi on a Sephacryl size exclusion column in 50 mM Tris/HCl pH 7.5, 150 mM NaCl; fractions assayed for enzyme activity; size estimated against protein standards.

As usually defined, the stoichiometry N is a count of units in the complex or per binding partner.

In the case of `O=[N+]([O-])c1ccc(O[C@H]2O[C@H](CO)[C@@H](O)[C@H](O)[C@H]2O)cc1` [4-nitrophenyl α-D-glucopyranoside], the “4-nitrophenol release, absorbance 405 nm” value on Agl97 (maltase) [1] is “Purified recombinant Agl97 was assayed with pNPG”. For the compound `OC[C@@H]1NC[C@H](O)[C@H]1O` [LAB, 1,4-dideoxy-1,4-imino-L-arabinitol], the “% inhibition” value at Agl97 (maltase) [2] is “LAB inhibited the activity of purified recombinant maltase (Agl97)”. Regarding “AXAH activity of barley endosperm (arabinoxylan arabinofuranohydrolase, endogenous) (enzyme)”, in test [3], the stoichiometry N was 2.

The values above are taken from paper PMC5020691, “Cell wall degradation is required for normal starch mobilisation in barley endosperm” (Scientific Reports, 2016).
